Assay results from patent US4401660A, “Ester derivatives of 5-O-mycaminosyl tylonolide and method of using same” (Eli Lilly and Company, priority 1981, dated 1983).
Read-outs that look alike come from different tables or passages of the source.

Tests used:
[1] = test system: Haemophilus influenzae Holt; experiment: MIC, standard agar-dilution assay (Table II); assay type: cell-based; set-up: unit not given here; conditions: ampicillin-sensitive strain
Procedure: (§1) The MIC's in Table II were determined by standard agar-dilution assays. The MIC's in Table III were obtained using a conventional broth-dilution microtiter test.

[2] = test system: Haemophilus influenzae R252; experiment: MIC, standard agar-dilution assay (Table II); assay type: cell-based; set-up: unit not given here; conditions: Haemophilus influenzae R252, ampicillin-resistant strain
Procedure: as §1

[3] = test system: Staphylococcus aureus S13E; experiment: MIC, standard agar-dilution assay (Table II); assay type: cell-based; set-up: unit not given here
Procedure: as §1

[4] = test system: Staphylococcus aureus V41; experiment: MIC, standard agar-dilution assay (Table II); assay type: cell-based; set-up: unit not given here; conditions: Staphylococcus aureus V41, penicillin-resistant strain
Procedure: as §1

[5] = test system: Staphylococcus aureus X1.1; experiment: MIC, standard agar-dilution assay (Table II); assay type: cell-based; set-up: unit not given here
Procedure: as §1

[6] = test system: Staphylococcus aureus X400; experiment: MIC, standard agar-dilution assay (Table II); assay type: cell-based; set-up: unit not given here; conditions: Staphylococcus aureus X400, methicillin-resistant strain
Procedure: as §1

[7] = test system: Staphylococcus epidermidis EPI1; experiment: MIC, standard agar-dilution assay (Table II); assay type: cell-based; set-up: unit not given here
Procedure: as §1

[8] = test system: Staphylococcus epidermidis EPI2; experiment: MIC, standard agar-dilution assay (Table II); assay type: cell-based; set-up: unit not given here
Procedure: as §1

[9] = test system: Streptococcus Group D 9960; experiment: MIC, standard agar-dilution assay (Table II); assay type: cell-based; set-up: unit not given here
Procedure: as §1

[10] = test system: Streptococcus Group D X66; experiment: MIC, standard agar-dilution assay (Table II); assay type: cell-based; set-up: unit not given here
Procedure: as §1

[11] = test system: Streptococcus pneumoniae Park I; experiment: MIC, standard agar-dilution assay (Table II); assay type: cell-based; set-up: unit not given here
Procedure: as §1

[12] = test system: Streptococcus pyogenes C203; experiment: MIC, standard agar-dilution assay (Table II); assay type: cell-based; set-up: unit not given here
Procedure: as §1

Mycoplasma gallisepticum = experiment: MIC, broth-dilution microtiter test (Table III); assay type: cell-based; set-up: unit not given here
Procedure: as §1

Mycoplasma hyorhinis = experiment: MIC, broth-dilution microtiter test (Table III); assay type: cell-based; set-up: unit not given here
Procedure: as §1

Mycoplasma synoviae = experiment: MIC, broth-dilution microtiter test (Table III); assay type: cell-based; set-up: unit not given here
Procedure: as §1

[13] = test system: Pasteurella haemolytica 22C; experiment: MIC, broth-dilution microtiter test (Table III); assay type: cell-based; set-up: unit not given here
Procedure: as §1

[14] = test system: Pasteurella haemolytica 23C; experiment: MIC, broth-dilution microtiter test (Table III); assay type: cell-based; set-up: unit not given here
Procedure: as §1

[15] = test system: Pasteurella haemolytica 41D; experiment: MIC, broth-dilution microtiter test (Table III); assay type: cell-based; set-up: unit not given here
Procedure: as §1

[16] = test system: Pasteurella multocida 17E; experiment: MIC, broth-dilution microtiter test (Table III); assay type: cell-based; set-up: unit not given here; conditions: bovine isolate
Procedure: as §1

[17] = test system: Pasteurella multocida 22A; experiment: MIC, broth-dilution microtiter test (Table III); assay type: cell-based; set-up: unit not given here
Procedure: as §1

[18] = test system: Pasteurella multocida 40G; experiment: MIC, broth-dilution microtiter test (Table III); assay type: cell-based; set-up: unit not given here
Procedure: as §1

[19] = test system: Pasteurella multocida 60A; experiment: MIC, broth-dilution microtiter test (Table III); assay type: cell-based; set-up: unit not given here; conditions: avian isolate
Procedure: as §1

[20] = test system: Pasteurella multocida 68C; experiment: MIC, broth-dilution microtiter test (Table III); assay type: cell-based; set-up: unit not given here
Procedure: as §1

Staphylococcus aureus = experiment: MIC, broth-dilution microtiter test (Table III); assay type: cell-based; set-up: unit not given here
Procedure: as §1

Streptococcus sp. 80 = experiment: MIC, broth-dilution microtiter test (Table III); assay type: cell-based; set-up: unit not given here
Procedure: as §1

[21] = test system: Streptococcus pyogenes C203; experiment: ED50 in mice with experimental infections (Table IV); assay type: in vivo; conditions: Streptococcus pyogenes, doses given 1 and 4 hours postinfection
How it was run: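 Read-out is ED50, the mg/kg dose protecting half of infected mice; values refer to each of two doses, given 1 and 4 hours after infection.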

Pasteurella multocida = experiment: Treatment of Pasteurella infections in chicks (Table V); assay type: in vivo, one-day-old chicks; conditions: Pasteurella multocida, sc, 4 h; 30 mg/kg by subcutaneous injection one and four hours post challenge; read-out: Deaths in Treated Chicks/Number Treated (converted)
How it was run: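 Dosing was 30 mg/kg by subcutaneous injection, one and four hours after challenge. Day-old chicks received 0.1 ml of a 10^-3 dilution of a 20-hour tryptose broth culture of avian P. multocida subcutaneously. Nonmedicated infected chicks served as controls, ten per group.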

[22] = C203, oral, read-out: ED50, Oral
[23] = C203, sc, subcutaneous, read-out: ED50, Subcutaneous

Row | Compound | minimal inhibitory concentration (MIC) [1] | minimal inhibitory concentration (MIC) [2] | minimal inhibitory concentration (MIC) [3] | minimal inhibitory concentration (MIC) [4] | minimal inhibitory concentration (MIC) [5] | minimal inhibitory concentration (MIC) [6] | minimal inhibitory concentration (MIC) [7] | minimal inhibitory concentration (MIC) [8] | minimal inhibitory concentration (MIC) [9] | minimal inhibitory concentration (MIC) [10] | minimal inhibitory concentration (MIC) [11] | minimal inhibitory concentration (MIC) [12] | minimal inhibitory concentration (MIC) (Mycoplasma gallisepticum) | minimal inhibitory concentration (MIC) (Mycoplasma hyorhinis) | minimal inhibitory concentration (MIC) (Mycoplasma synoviae) | minimal inhibitory concentration (MIC) [13] | minimal inhibitory concentration (MIC) [14] | minimal inhibitory concentration (MIC) [15] | minimal inhibitory concentration (MIC) [16] | minimal inhibitory concentration (MIC) [17] | other results
1 | CCC(=O)OCC1C=C(C)C=CC(=O)C(C)CC(CC=O)C(OC2OC(C)C(O)C(N(C)C)C2O)C(C)C(O)CC(=O)OC1CC (stereo not shown) [Compound 14, 23-O-Propionyl-OMT] | 1 | 4 | 0.25 | 0.25 | 0.25 | 0.25 | 0.125 | 0.125 | 0.25 | 0.25 | 0.125 | 0.125 | 0.05 | 6.25 | 0.05 | 6.25 | 3.12 | 6.25 | 1.56 | 3.12 | minimal inhibitory concentration (MIC) [18]: 1.56; minimal inhibitory concentration (MIC) [19]: 0.78; minimal inhibitory concentration (MIC) [20]: 1.56; minimal inhibitory concentration (MIC) (Staphylococcus aureus): 0.39; minimal inhibitory concentration (MIC) (Streptococcus sp. 80): 0.195; ED50 [21, 22]: 106 mg/kg; ED50 [21, 23]: 6 mg/kg; mortality at 30 mg/kg (Pasteurella multocida): 0%
2 | CCC1OC(=O)CC(O)C(C)C(OC2OC(C)C(O)C(N(C)C)C2OC(C)=O)C(CC=O)CC(C)C(=O)C=CC(C)=CC1COC(C)=O (stereo not shown) [Compound 9] | 1 | 4 | 0.25 | 0.5 | 0.45 | 0.5 | 0.25 | 0.25 | 0.5 | 0.5 | 0.125 | 0.25 | < 0.78 | 1.56 | 0.097 | 3.12 | 3.12 | 3.12 | 1.56 | 6.25 | minimal inhibitory concentration (MIC) [18]: 1.56; minimal inhibitory concentration (MIC) [19]: 1.56; minimal inhibitory concentration (MIC) [20]: 3.12; minimal inhibitory concentration (MIC) (Staphylococcus aureus): 0.78; minimal inhibitory concentration (MIC) (Streptococcus sp. 80): 0.195; ED50 [21, 22]: 137 mg/kg; ED50 [21, 23]: 6.4 mg/kg; mortality at 30 mg/kg (Pasteurella multocida): 0%
3 | CCC1OC(=O)CC(O)C(C)C(OC2OC(C)C(O)C(N(C)C)C2O)C(CC=O)CC(C)C(=O)C=CC(C)=CC1COC(=O)Cc1ccccc1 (stereo not shown) [Compound 29, 23-O-Phenylacetyl-OMT] | 0.5 | 1 | 0.125 | 0.125 | 0.125 | 0.125 | 0.125 | 0.25 | 0.125 | 0.125 | 0.03 | 0.06 | 0.05 | 0.195 | 0.05 | 3.12 | 3.12 | 3.12 | 1.56 | 1.56 | minimal inhibitory concentration (MIC) [18]: 1.56; minimal inhibitory concentration (MIC) [19]: 0.78; minimal inhibitory concentration (MIC) [20]: 1.56; minimal inhibitory concentration (MIC) (Staphylococcus aureus): 0.097; minimal inhibitory concentration (MIC) (Streptococcus sp. 80): 0.05; ED50 [21, 22]: > 100 mg/kg; ED50 [21, 23]: 5 mg/kg; mortality at 30 mg/kg (Pasteurella multocida): 0%
4 | CCC1OC(=O)CC(O)C(C)C(OC2OC(C)C(O)C(N(C)C)C2O)C(CC=O)CC(C)C(=O)C=CC(C)=CC1COS(=O)(=O)c1ccc(C)cc1 (stereo not shown) [Compound 46] | 1 | 1 | 0.25 | 0.25 | 0.25 | 0.25 | 0.25 | 0.25 | 0.25 | 0.25 | 0.03 | 0.125 | 0.05 | 0.78 | 0.097 | 3.12 | 3.12 | 3.12 | 3.12 | 6.25 | minimal inhibitory concentration (MIC) [18]: 6.25; minimal inhibitory concentration (MIC) [19]: 1.56; minimal inhibitory concentration (MIC) [20]: 3.12; minimal inhibitory concentration (MIC) (Staphylococcus aureus): 0.195; minimal inhibitory concentration (MIC) (Streptococcus sp. 80): 0.097; ED50 [21, 22]: 146 mg/kg; ED50 [21, 23]: 15 mg/kg; mortality at 30 mg/kg (Pasteurella multocida): 80%
